Here are results for five compounds from patent US12319726B2, “Method for treating CD40-mediated diseases” (CASE WESTERN RESERVE UNIVERSITY, priority 2008, dated 2025).

For series [1], the system named is Human aortic endothelial cells (HAEC). The series can be described thus: CD154-induced VCAM-1 upregulation in HAEC transduced with wild-type CD40 (FACS). The settings on record: second generation peptides (Tat MTD), 100 nM, p<0.02. Format: cell-based. The procedure: FIGS. 2A-D are a series of graphs showing the induction of VCAM-1 (FIG. 2A), ICAM-1 (FIG. 2B), MCP-1 (FIG. 2C), and tissue factor (FIG. 2D) expression by TRAFs. Human aortic endothelial cells (HAEC) transduced with empty EGFP-encoding retroviral vector (MIEG3) or retroviral vector that encoded either wild type CD40 (wt CD40), CD40 with a mutation that prevents recruitment of TRAF2 and 3 (ΔT2, 3), recruitment of TRAF6 (ΔT6), or recruitment of TRAF2, 3, and 6 (ΔT2, 3, and 6) were incubated with or without CD154. VCAM-1, ICAM-1, and tissue factor were assessed by FACS on transduced (EGFP+) cells. cMFI=corrected Mean Fluorescence Intensity. MCP-1 was measured by ELISA (N=3).
FIGS. 3A-B are a series of graphs showing the effects cell-permeable polypeptides that block CD40-TRAF interactions (T2,3BP and T6BP) on upregulation of VCAM-1 and MCP-1 in HAEC. HAEC were transduced with retroviral vectors encoding wild-type CD40 and incubated with or without CD154. HAEC were pre-treated with either control, TRAF2,3 blocking peptide (T2,3BP), or TRAF6 blocking peptide (T6BP) (200 μM) (N=2).
FIG. 5 is a graph showing the effects of second generation TRAF2, 3 blocking peptide on VCAM-1 upregulation in HAEC.
CD40 activates a variety of signaling cascades. […] Next, we determined if preventing the function of the TRAF2,3 binding site affects adhesion molecule upregulation. […]

For the next series, the system named is HAEC. Kind of series: Viability of HAEC incubated with cell-permeable peptides. Format: cell-based, human. The settings on record: first generation cell-permeable peptides. The source says:
We used peptides that consisted of the amino acid sequence of the TRAF2,3 or the TRAF6 binding sites of CD40 fused a protein transduction domain derived from the Kaposi fibroblast growth factor to make the peptides cell-permeable, (SEQ ID NO: 1 or SEQ ID NO: 2, respectively). […] Thus, the results obtained with the blocking peptides were similar to those obtained with CD40 mutants.

The test system of the next series is retinas subjected to I/R. Kind of series: Model of retinal ischemia/reperfusion (I/R), intravitreal peptide. It counts as in vivo, B6 mice. On the procedure: FIGS. 20(A-C) illustrate images and graphs showing ri CD40-TRAF2,3 blocking peptide protects against loss of ganglion cells and leukocyte infiltration in retinas subjected to I/R. One eye from each B6 and CD40^−/− mouse was subjected to I/R. Contralateral non-ischemic eye was used as control. Eyes subjected to I/R in B6 mice were treated intravitreously with or without ri control peptide, ri CD40-TRAF2,3 blocking peptide (both 1 μg) 30 min prior to increase in IOP. Eyes were collected 2 d after I/R. A marked decrease in the number of ganglion cells is observed in ischemic eyes from B6 treated with ri control peptide or vehicle (original magnification ×400). […] Arrowhead plus asterix identifies a PMN magnified in the inset (original magnification ×600). Scale bar, 50 μm. Number of ganglion cells per mm. Number of infiltrating leukocytes in the inner retina and vitreous per section. GCL=Ganglion cell layer; IPL=Inner plexiform layer; INL=Inner nuclear layer. OPL=Outer plexiform layer; ONL=Outer nuclear layer. Data shown represent Mean±SEM (9 mice per group). *P<0.05; **P<0.01; […].
FIG. 21 illustrates graphs showing ri CD40-TRAF2,3 blocking peptide impairs upregulation of NOS2 and COX-2 in retinas subjected to I/R. One eye of each mouse was treated as above and subjected to I/R. Eyes were collected after 2 d. mRNA levels of NOS2 and COX-2 were assessed by quantitative real time PCR. One non-ischemic eye from a B6 mouse was given an arbitrary value of 1 and data are expressed as fold-increase compared to this animal. Data shown represent Mean±SEM (7-9 mice per group). ***P<0.001.
FIGS. 22(A-B) illustrate graphs and images showing ri CD40-TRAF2,3 blocking peptide impairs upregulation of ICAM-1 and KC/CXCL1 in retinal endothelial cells from retinas subjected to I/R. One eye of each mouse was subjected to I/R. Eyes were collected after 2 d. mRNA levels of ICAM-1 and KC/CXCL1 were assessed by quantitative real time PCR. One non-ischemic eye from a B6 mouse was given an arbitrary value of 1 and data are expressed as fold-increase compared to this animal. Data shown represent Mean±SEM (7-9 mice per group). ***P<0.001. Retinal sections were incubated with Tomato Lectin (labels endothelial cells) plus either anti-ICAM-1 or anti-KC/CXCL1 Ab. Original magnification ×600. GCL=Ganglion cell layer; IPL=Inner plexiform layer; INL=Inner nuclear layer. Scale bar, 10 μm. 6 mice/group.
FIG. 23 illustrates images showing ri CD40-TRAF2,3 blocking peptide impairs NOS2 and KC/CXCL1 upregulation in Müller cells from retinas subjected to I/R. Eyes from B6 mice were treated with control peptide or CD40-TRAF2,3 blocking peptide, subjected to I/R and collected after 2 d. Retinal sections were incubated with anti-Vimentin Ab (labels Müller cells) plus either anti-NOS2 or anti-KC/CXCL1 Ab. Protein expression at the level of Müller cells stalks. […]. Original magnification ×600. Scale bar, 10 μm. 6 mice/group.
FIGS. 24(A-D) illustrate images and graphs showing ri CD40-TRAF2,3 blocking peptide protects against loss of ganglion neurons and inflammation when administered after retinal I/R. One eye from each B6 mouse was subjected to I/R. Non-ischemic eyes were used as controls. Eyes that were subjected to I/R received either ri control peptide or ri CD40-TRAF2,3 blocking peptide 90 min after increase in IOP. Eyes were collected 2 d after I/R. Administration of the blocking peptide protects against ganglion cell loss and infiltration by leukocytes (arrowhead). Original magnification ×400. Scale bar, 50 μm. Number of ganglion cells per mm. Number of leukocytes in the inner retina and vitreous per section. mRNA levels of ICAM-1, KC/CXCL1, NOS2 and COX-2 were assessed by quantitative real time PCR as above. Data shown represent Mean±SEM (7-9 mice per group). **P<0.01; ***P<0.001. GCL=Ganglion cell layer; IPL=Inner plexiform layer; INL=Inner nuclear layer. […]

In series [2] the test system is human retinal endothelial cells. Format: cell-based. The text has this: (§1) Peptide consisted of the TRAF2,3 binding site of CD40 that was made cell permeable by linking them to the TAT47-57 cell penetrating peptide. Peptides were synthesized using D-amino acids following reverse amino acid sequence (ri format). The sequences for the CD40-TRAF2,3 blocking peptide was —NH2-rrrqrrkkrgy ghlteqvhaatn-OH (SEQ ID NO: 49). The TAT47-57 sequence is underlined. The peptide contains a proline (p) to histidine (h) substitution (shown in italics) that enhances affinity to TRAF2. Control (scrambled) peptide consisted of NH2-rrrqrrkkrgy ntqalahtgevh-OH (SEQ ID NO: 50). The blocking peptide was also synthesized with Alexa Fluor 488 conjugated via maleimide coupling to an additional Cys in the N terminus. Peptides were manufactured by Biopeptide Co. (San Diego, CA) and were low in endotoxin and >98% pure by HPLC. Peptides were used at 1 μM in vitro experiments and 1 μg for in vivo studies unless otherwise stated. Peptides were not toxic to human Müller and retinal endothelial cells as assessed by alamarBlue cell viability assay (Invitrogen Corporation).
(§2) Primary human retinal endothelial cells were obtained as described (9) and cultured in complete medium supplemented with endothelial cell growth supplement from bovine pituitary (15 μg/ml; Sigma Chemical, St Louis, MO) and insulin/transferrin/selenium (Sigma Chemical). Cell identity was confirmed by incorporation of acetylated low-density lipoprotein (>90%). Endothelial cells were used between passages 3 to 6. The human Müller cell line MIO M1 (gift from Dr. Gloria Limb; University College London, UK; >95% vimentin^+, CRALBP^+ and GFAP^−) was also used. Endothelial cells were incubated with multimeric human CD154 to induce CD40 stimulation (obtained from Dr. Richard Kornbluth, Multimeric Biotherapeutics Inc., La Jolla, CA) or with a non-functional CD154 mutant (T147N) as control.
(§3) Peptides were tested as described using the mouse endothelial cells mHEVc that expresses a chimera of the extracellular domain of human CD40 and intracytoplasmic domain of mouse CD40 (hmCD40) with either a mutation that prevents recruitment of TRAF2,3 (hmCD40 ΔT2,3) or TRAF6 (hmCD40 ΔT6). These cells were transfected with pGL4.32luc2P/NF-κB-RE/Hygro vector (Promega Corporation, Madison, WI) encoding an NF-κB response element that drives the luciferase reporter gene luc2P (Photinus pyralis). Cells were pre-incubated with peptides for 3 hr. followed by stimulation with human CD154. Luciferase activity was assessed using a Steady-Glo luciferase assay system (Promega Corporation) and a luminometer. The effects of peptides on cell viability were examined using alamarBlue cell viability assay.

For a further series, the system named is human Müller cells. It counts as cell-based.
Source text: as §1, §2, §3

The mark [3] stands for this setting: 1 μg intravitreal prior to I/R, 2 d, real time PCR.
Setting [4] is: prior to I/R, 2 d, immunohistochemistry.

Where no end group is shown, it is not given here.

Regarding “NTAAHVQETLHG YGRKKRRQRRR [SEQ ID NO: 13]”, in series [1], the “inhibition of upregulation of VCAM-1 triggered by CD154” value worked out at 60%.

As to “AAVALLPAVLLALLAPAPHPKQEPQEIDFPDD [SEQ ID NO: 2, AAVALLPAVLLALLAP APHPKQEPQEIDFPDD]”, the “viability of HAEC” value in the series with HAEC is reported as “did not affect viability”.

Take “AAVALLPAVLLALLAPSNTAAPVQETLHG [SEQ ID NO: 1, AAVALLPAVLLALLAP SNTAAPVQETLHG]”: the “viability of HAEC” value in the series with HAEC is reported as “did not affect viability”.

For the compound “KQEPQEIDFPDD YGRKKRRQRRR [SEQ ID NO: 18]”, the “inhibition of upregulation of VCAM-1 triggered by CD154” value in series [1] is recorded as 60%.

Take `CC(C)C[C@@H](NC(=O)[C@@H](C)NC(=O)[C@@H](CCC(N)=O)NC(=O)[C@H](NC(=O)[C@@H](CC(N)=O)NC(=O)[C@@H](Cc1ccc(O)cc1)NC(=O)CNC(=O)[C@@H](CCCNC(=N)N)NC(=O)[C@@H](CCCCN)NC(=O)[C@@H](CCCCN)NC(=O)[C@@H](CCCNC(=N)N)NC(=O)[C@@H](CCCNC(=N)N)NC(=O)[C@@H](CCC(N)=O)NC(=O)[C@@H](CCCNC(=N)N)NC(=O)[C@@H](CCCNC(=N)N)NC(=O)[C@H](N)CCCNC(=N)N)[C@H](C)O)C(=O)N[C@H](C)C(=O)N[C@H](Cc1c[nH]cn1)C(=O)N[C@@H](C(=O)NCC(=O)N[C@H](CCC(=O)O)C(=O)N[C@@H](C(=O)N[C@H](Cc1c[nH]cn1)C(=O)O)C(C)C)[C@H](C)O` [ri control peptide, NH2-rrrqrrkkrgy ntqalahtgevh-OH, reference compound]: in the series on retinas subjected to I/R (setting [3]), the “COX-2 mRNA levels in retina” value was “upregulated”, the “ICAM-1 mRNA levels in retina” value is “marked upregulation”, the “KC/CXCL1 mRNA levels in retina” value was “marked upregulation” and the “NOS2 mRNA levels in retina” value is “upregulated”. Moreover, the “PMN infiltration in the inner retina and vitreous” value in the series with retinas subjected to I/R (1 μg intravitreal prior to I/R, 2 d after I/R) was “developed PMN infiltration”. For the same compound, the “loss of ganglion cells” value in the series with retinas subjected to I/R (1 μg intravitreal prior to I/R, eyes collected 2 d after I/R) is recorded as “not altered”. In addition, in the series with retinas subjected to I/R (setting [4]), the “expression of ICAM-1 in retinal endothelial cells” value is listed as “increased”, the “expression of KC/CXCL1 in Müller cells” value is given as “increased KC/CXCL1 expression”, the “expression of KC/CXCL1 in retinal endothelial cells” value was “increased” and the “expression of NOS2 in Müller cells” value is “NOS2 upregulation”. Further, the “toxicity (alamarBlue cell viability assay)” value in series [2] is “not toxic”. For the same compound, the “toxicity (alamarBlue cell viability assay)” value in the series with human Müller cells is given as “not toxic”.
